Where two headings read alike, the source gives them in different places.
Experiments:
Test in all cases: Test E pre-/postemergence plant response
Type in all cases: in vivo
[1] = test system: lambsquarters (Chenopodium album); conditions: scale 0 to 100, read-out: Plant response rating, Lambsquarters; for pest or weed control at 16 g/ha: 16 g ai/ha; for pest or weed control at 31 g/ha: 31 g ai/ha; for pest or weed control at 62 g/ha: 62 g ai/ha; for pest or weed control at 125 g/ha: 125 g ai/ha
Text: (§1) Seeds of plant species selected from bluegrass (annual bluegrass, Poa annua), blackgrass (Alopecurus myosuroides), canarygrass (Phalaris minor), chickweed (common chickweed, Stellaria media), galium (catchweed bedstraw, Galium aparine), downy bromegrass (Bromus tectorum), field poppy (Papaver rhoeas), field violet (Viola arvensis), green foxtail (Setaria viridis), deadnettle (henbit deadnettle, Lamium amplexicaule), Italian ryegrass (Lolium multiflorum), kochia (Kochia scoparia), lambsquarters (Chenopodium album), oilseed rape (Brassica napus), pigweed (Amaranthus retroflexus), Russian thistle (Salsola iberica), chamomile (scentless chamomile, Matricaria inodora), speedwell (bird's-eye speedwell, Veronica persica), spring barley (Hordeum vulgare), spring wheat (Triticum aestivum), wild buckwheat (Polygonum convolvulus), wild mustard (Sinapis arvensis), wild oat (Avena fatua), wild radish (Raphanus raphanistrum), windgrass (Apera spica-venti), winter barley (Hordeum vulgare), and winter wheat (Triticum aestivum) were planted into a silt loam soil and treated preemergence with test chemicals formulated in a non-phytotoxic solvent mixture which included a surfactant. At the same time, these species were planted in pots containing Redi-Earth® planting medium (Scotts Company, 14111 Scottslawn Road, Marysville, Ohio 43041) comprising spaghnum peat moss, vermiculite, wetting agent and starter nutrients and treated with postemergence applications of the test chemicals formulated in the same manner. Plants ranged in height from 2 to 18 cm (1- to 4-leaf stage).
(§2) Treated plants and controls were maintained in a controlled growth environment for 7 to 21 days after which time all species were compared to controls and visually evaluated. Plant response ratings, summarized in Table E, are based on a scale of 0 to 100 where 0 is no effect and 100 is complete control. A dash (-) response means no test result.

[2] = test system: oilseed rape (Brassica napus); conditions: scale 0 to 100, read-out: Plant response rating, Oilseed Rape; for plant injury at 16 g/ha: 16 g ai/ha; for plant injury at 31 g/ha: 31 g ai/ha; for plant injury at 62 g/ha: 62 g ai/ha; for plant injury at 125 g/ha: 125 g ai/ha
Text: as §1, §2

[3] = test system: green foxtail (Setaria viridis); conditions: scale 0 to 100, read-out: Plant response rating, Foxtail, Green; for pest or weed control at 16 g/ha: 16 g ai/ha; for pest or weed control at 31 g/ha: 31 g ai/ha; for pest or weed control at 62 g/ha: 62 g ai/ha; for pest or weed control at 125 g/ha: 125 g ai/ha
Text: as §1, §2

[4] = test system: bluegrass (annual bluegrass, Poa annua); conditions: scale 0 to 100, read-out: Plant response rating, Bluegrass; for pest or weed control at 16 g/ha: 16 g ai/ha; for pest or weed control at 31 g/ha: 31 g ai/ha; for pest or weed control at 62 g/ha: 62 g ai/ha; for pest or weed control at 125 g/ha: 125 g ai/ha
Text: as §1, §2

wild oat (Avena fatua) = conditions: scale 0 to 100, read-out: Plant response rating, Oat, Wild; for pest or weed control at 16 g/ha: 16 g ai/ha; for pest or weed control at 31 g/ha: 31 g ai/ha; for pest or weed control at 62 g/ha: 62 g ai/ha; for pest or weed control at 125 g/ha: 125 g ai/ha
Text: as §1, §2

[5] = test system: wild radish (Raphanus raphanistrum); conditions: scale 0 to 100, read-out: Plant response rating, Radish, Wild; for pest or weed control at 16 g/ha: 16 g ai/ha; for pest or weed control at 31 g/ha: 31 g ai/ha; for pest or weed control at 62 g/ha: 62 g ai/ha; for pest or weed control at 125 g/ha: 125 g ai/ha
Text: as §1, §2

[6] = test system: winter wheat (Triticum aestivum); conditions: post-emergence, Postemergence, scale 0 to 100, read-out: Plant response rating, Wheat, Winter
Text: as §1, §2

[7] = test system: deadnettle (henbit deadnettle, Lamium amplexicaule); conditions: scale 0 to 100, read-out: Plant response rating, Deadnettle; for pest or weed control at 16 g/ha: 16 g ai/ha; for pest or weed control at 31 g/ha: 31 g ai/ha; for pest or weed control at 62 g/ha: 62 g ai/ha; for pest or weed control at 125 g/ha: 125 g ai/ha
Text: as §1, §2

[8] = test system: galium (catchweed bedstraw, Galium aparine); conditions: scale 0 to 100, read-out: Plant response rating, Galium; for pest or weed control at 16 g/ha: 16 g ai/ha; for pest or weed control at 31 g/ha: 31 g ai/ha; for pest or weed control at 62 g/ha: 62 g ai/ha; for pest or weed control at 125 g/ha: 125 g ai/ha
Text: as §1, §2

[9] = test system: spring wheat (Triticum aestivum); conditions: post-emergence, Postemergence, scale 0 to 100, read-out: Plant response rating, Wheat, Spring
Text: as §1, §2

[10] = test system: field violet (Viola arvensis); conditions: scale 0 to 100, read-out: Plant response rating, Field Violet; for pest or weed control at 16 g/ha: 16 g ai/ha; for pest or weed control at 31 g/ha: 31 g ai/ha; for pest or weed control at 62 g/ha: 62 g ai/ha; for pest or weed control at 125 g/ha: 125 g ai/ha
Text: as §1, §2

FC(F)c1cc(-c2ccccc2Oc2ncc(Cl)cn2)no1 [Compound 35, 5-chloro-2-[2-[5-(difluoromethyl)-3-isoxazolyl]phenoxy]pyrimidine]
80%: pest or weed control at 16 g/ha ([1]; post-emergence, Postemergence) | pest or weed control at 31 g/ha ([1]; post-emergence, Postemergence) | plant injury at 31 g/ha ([2]; post-emergence, Postemergence) | pest or weed control at 125 g/ha ([7]; post-emergence, Postemergence) | pest or weed control at 31 g/ha ([7]; pre-emergence, Preemergence) | pest or weed control at 31 g/ha ([8]; post-emergence, Postemergence)
75%: pest or weed control at 31 g/ha ([5]; post-emergence, Postemergence) | pest or weed control at 62 g/ha ([8]; post-emergence, Postemergence) | pest or weed control at 62 g/ha ([10]; post-emergence, Postemergence) | pest or weed control at 125 g/ha ([10]; post-emergence, Postemergence)
10%: pest or weed control at 16 g/ha (wild oat (Avena fatua); post-emergence, Postemergence) | plant injury at 31 g/ha ([9]; 31 g ai/ha)
90%: pest or weed control at 125 g/ha ([1]; post-emergence, Postemergence) | pest or weed control at 62 g/ha ([1]; pre-emergence, Preemergence) | pest or weed control at 31 g/ha ([3]; pre-emergence, Preemergence) | pest or weed control at 62 g/ha ([3]; pre-emergence, Preemergence) | pest or weed control at 62 g/ha ([10]; pre-emergence, Preemergence)
65%: pest or weed control at 16 g/ha ([1]; pre-emergence, Preemergence) | pest or weed control at 16 g/ha ([5]; post-emergence, Postemergence) | pest or weed control at 31 g/ha ([10]; post-emergence, Postemergence)
95%: plant injury at 62 g/ha ([2]; post-emergence, Postemergence) | plant injury at 31 g/ha ([2]; pre-emergence, Preemergence) | pest or weed control at 125 g/ha ([5]; post-emergence, Postemergence) | pest or weed control at 31 g/ha ([5]; pre-emergence, Preemergence) | pest or weed control at 62 g/ha ([7]; pre-emergence, Preemergence) | pest or weed control at 125 g/ha ([7]; pre-emergence, Preemergence)
15%: pest or weed control at 16 g/ha ([4]; post-emergence, Postemergence) | pest or weed control at 31 g/ha (wild oat (Avena fatua); post-emergence, Postemergence) | plant injury at 31 g/ha ([6]; 31 g ai/ha) | pest or weed control at 16 g/ha ([10]; pre-emergence, Preemergence)
55%: pest or weed control at 62 g/ha ([3]; post-emergence, Postemergence) | pest or weed control at 125 g/ha ([3]; post-emergence, Postemergence) | pest or weed control at 31 g/ha ([8]; pre-emergence, Preemergence)
5%: pest or weed control at 16 g/ha ([3]; pre-emergence, Preemergence) | plant injury at 16 g/ha ([6]; 16 g ai/ha)
70%: plant injury at 16 g/ha ([2]; post-emergence, Postemergence) | pest or weed control at 125 g/ha ([4]; pre-emergence, Preemergence) | pest or weed control at 62 g/ha ([7]; post-emergence, Postemergence) | pest or weed control at 16 g/ha ([8]; post-emergence, Postemergence) | pest or weed control at 31 g/ha ([10]; pre-emergence, Preemergence)
100%: pest or weed control at 125 g/ha ([1]; pre-emergence, Preemergence) | plant injury at 125 g/ha ([2]; post-emergence, Postemergence) | plant injury at 62 g/ha ([2]; pre-emergence, Preemergence) | plant injury at 125 g/ha ([2]; pre-emergence, Preemergence) | pest or weed control at 125 g/ha ([3]; pre-emergence, Preemergence) | pest or weed control at 16 g/ha ([5]; pre-emergence, Preemergence) | pest or weed control at 62 g/ha ([5]; pre-emergence, Preemergence) | pest or weed control at 125 g/ha ([5]; pre-emergence, Preemergence) | pest or weed control at 62 g/ha ([8]; pre-emergence, Preemergence) | pest or weed control at 125 g/ha ([8]; pre-emergence, Preemergence) | pest or weed control at 125 g/ha ([10]; pre-emergence, Preemergence)
40%: pest or weed control at 62 g/ha ([4]; post-emergence, Postemergence) | plant injury at 125 g/ha ([6]; 125 g ai/ha) | pest or weed control at 16 g/ha ([7]; post-emergence, Postemergence) | plant injury at 125 g/ha ([9]; 125 g ai/ha)
35%: pest or weed control at 31 g/ha ([3]; post-emergence, Postemergence) | pest or weed control at 31 g/ha ([4]; pre-emergence, Preemergence) | pest or weed control at 62 g/ha ([4]; pre-emergence, Preemergence) | pest or weed control at 62 g/ha (wild oat (Avena fatua); post-emergence, Postemergence) | pest or weed control at 125 g/ha (wild oat (Avena fatua); pre-emergence, Preemergence) | pest or weed control at 16 g/ha ([7]; pre-emergence, Preemergence)
20%: pest or weed control at 16 g/ha ([3]; post-emergence, Postemergence) | pest or weed control at 31 g/ha ([4]; post-emergence, Postemergence)
0%: pest or weed control at 16 g/ha ([4]; pre-emergence, Preemergence) | pest or weed control at 16 g/ha (wild oat (Avena fatua); pre-emergence, Preemergence) | pest or weed control at 31 g/ha (wild oat (Avena fatua); pre-emergence, Preemergence) | plant injury at 16 g/ha ([9]; 16 g ai/ha)
60%: plant injury at 16 g/ha ([2]; pre-emergence, Preemergence) | pest or weed control at 125 g/ha ([4]; post-emergence, Postemergence) | pest or weed control at 125 g/ha (wild oat (Avena fatua); post-emergence, Postemergence) | pest or weed control at 31 g/ha ([7]; post-emergence, Postemergence) | pest or weed control at 16 g/ha ([10]; post-emergence, Postemergence)
25%: plant injury at 62 g/ha ([6]; 62 g ai/ha) | pest or weed control at 16 g/ha ([8]; pre-emergence, Preemergence) | plant injury at 62 g/ha ([9]; 62 g ai/ha)
85%: pest or weed control at 62 g/ha ([1]; post-emergence, Postemergence) | pest or weed control at 31 g/ha ([1]; pre-emergence, Preemergence) | pest or weed control at 62 g/ha ([5]; post-emergence, Postemergence) | pest or weed control at 125 g/ha ([8]; post-emergence, Postemergence)
45%: pest or weed control at 62 g/ha (wild oat (Avena fatua); pre-emergence, Preemergence)

— patent publication US10131652B2, “Pyrimidinyloxy benzene derivatives as herbicides” (E. I. DU PONT DE NEMOURS AND COMPANY, priority 2014, dated 2018)
